Results on 2 compounds are retold here after US12016841B2, “Methods and compositions for treatment of presbyopia, mydriasis, and other ocular disorders” (Ocuphire Pharma, Inc., priority 2018, dated 2024).

Counter-ions that a name gives are not always drawn.

For the test, the system named is patients with pupil sizes of at least 7 mm in diameter under dim light conditions. As to the kind of experiment: Pupil diameter after one drop of 0.2%, 0.4% or 0.8% (w/v) phentolamine mesylate solution (clinical study, NeurOptics pupilometer). It is filed as in vivo, human. On the procedure: Reduction in pupil diameter can be analyzed and characterized using procedures such as those described below in which a phentolamine mesylate solution was administered to patients' eyes and change in pupil diameter was measured and characterized. […] The phentolamine mesylate solution contained either 0.2% (w/v) phentolamine mesylate, 0.4% (w/v) phentolamine mesylate, or 0.8% (w/v) phentolamine mesylate.
Sixteen patients were randomized into four groups (of four subjects each). Each group was treated on three successive study visits separated by at least 4 days with one drop of ophthalmic oxymetazoline solution (Visine LR®) in each eye followed by one drop test article in each eye. The test article was a 0.2% (w/v) phentolamine mesylate solution, 0.4% (w/v) phentolamine mesylate solution, 0.8% (w/v) phentolamine mesylate solution, or placebo. Test articles contained the designed amount of phentolamine mesylate in a solution of Tears Naturale II® (from Alcon Labs). Placebo was just Tears Naturale II® (from Alcon Labs). Tears Naturale II® (from Alcon Labs) contains Dextran 70 (0.1% by weight), Hydroxypropyl Methylcellulose 2910 (0.3% by weight), Polyquaternium-1 (0.001% by weight), potassium chloride, water (purified), sodium borate, sodium chloride, and hydrochloric acid and/or sodium hydroxide as necessary to adjust the pH. The patients' pupil diameters were recorded at baseline (i.e., prior to treatment administration), and at 30 minutes, 1 hour, 2 hours, 4 hours, and 8 hours after administration of test articles. Total study duration was approximately nine hours.
Pupil diameters were measured to within 0.1 mm for each eye at baseline and each subsequent time point using a NeurOptics™ pupilometer. Comparisons of changes in mean values within treatment groups were tested for significance using two-tailed paired two sample t-tests with a threshold for significance set at p<0.01 (Bonferroni Correction for multiple paired t-tests). Differences between treatment groups with respect to mean values for pupil size over the course of the study were tested for significance using repeated measure ANOVA (which discards data from subjects lacking any data points). Differences in means between treatment groups at individual time points were tested for significance using one-way ANOVA.

Regarding `Cc1ccc(N(CC2=NCCN2)c2cccc(O)c2)cc1` [phentolamine mesylate], the “mean pupil diameters compared to placebo (ad hoc Fisher's tests)” value (any concentration, 2, 4 and 8 hours) is recorded as “significant differences in mean pupil diameters”. Further, the “mean changes in pupil diameters from baseline as a function of time” value (over the course of the study) was “significant reductions in pupil size”.

On to `Cc1ccc(N(CC2=NCCN2)c2cccc(O)c2)cc1` [phentolamine], for which, under “any time point”, the “differences in mean pupil diameters between different doses” value is “no statistically significant differences”. Moreover, the mean pupil diameters result (one hour post treatment) is on record as “lower”.
